According to PubChem BioAssay (NCI):
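Results reflect a 48-hour exposure of cells in 96-well plates to compound at five concentrations. The concentration for 50% growth inhibition is given as GI50. At the TGI there is no net growth.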

Tests used:
Test in all cases: NCI-60 cell line screen, 48 h
[1] = system: CAKI-1 renal
[2] = system: PC-3 prostate
[3] = system: A498 renal
[4] = system: SN12C renal
[5] = system: UO-31 renal
[6] = system: DU-145 prostate
[7] = system: M14 melanoma
[8] = system: HCT-116 colon
[9] = system: T-47D breast
[10] = system: OVCAR-5 ovarian
[11] = system: HS 578T breast
[12] = system: HCT-15 colon
[13] = system: CCRF-CEM leukemia
[14] = system: SF-268 CNS
[15] = system: UACC-257 melanoma
[16] = system: MCF7 breast
[17] = system: HL-60(TB) leukemia
[18] = system: NCI-H226 lung
[19] = system: MOLT-4 leukemia
[20] = system: 786-0 renal
[21] = system: KM12 colon
[22] = system: BT-549 breast
[23] = system: OVCAR-8 ovarian
[24] = system: U251 CNS
[25] = system: OVCAR-3 ovarian
[26] = system: SR leukemia
[27] = system: ACHN renal
[28] = system: SK-MEL-28 melanoma
[29] = system: K-562 leukemia
[30] = system: SK-MEL-5 melanoma
[31] = system: SW-620 colon
[32] = system: SF-539 CNS
[33] = system: OVCAR-4 ovarian
[34] = system: SK-OV-3 ovarian
[35] = system: HOP-62 NSCLC
[36] = system: NCI-H23 lung
[37] = system: MALME-3M melanoma
[38] = system: MDA-MB-435
[39] = system: TK-10 renal
[40] = system: NCI-H522 lung
[41] = system: COLO 205 colon
[42] = system: SNB-75 CNS
[43] = system: SK-MEL-2 melanoma
[44] = system: MDA-MB-231 breast
[45] = system: SNB-19 CNS
[46] = system: HCC-2998 colon
[47] = system: LOX IMVI melanoma
[48] = system: RPMI-8226 leukemia
[49] = system: HT29 colon
[50] = system: NCI/ADR-RES ovarian
[51] = system: IGROV1 ovarian
[52] = system: UACC-62 melanoma
[53] = system: A549 NSCLC
[54] = system: RXF 393 renal
[55] = system: NCI-H460 lung
[56] = system: SF-295 CNS
[57] = system: HOP-92 NSCLC

CCOC(=O)Nc1nc2cc(OC)c(OC)c(OC)c2s1
GI50 [1]: > 100 µM
TGI [1]: > 100 µM
GI50 [2]: > 100 µM
TGI [2]: > 100 µM
GI50 [3]: 26.2 µM
TGI [3]: > 100 µM
GI50 [4]: > 100 µM
TGI [4]: > 100 µM
GI50 [5]: 13.9 µM
TGI [5]: > 100 µM
GI50 [6]: > 100 µM
TGI [6]: > 100 µM
GI50 [7]: > 100 µM
TGI [7]: > 100 µM
GI50 [8]: > 100 µM
TGI [8]: > 100 µM
GI50 [9]: > 100 µM
TGI [9]: > 100 µM
GI50 [10]: > 100 µM
TGI [10]: > 100 µM
GI50 [11]: 17.5 µM
TGI [11]: > 100 µM
GI50 [12]: > 100 µM
TGI [12]: > 100 µM
GI50 [13]: > 100 µM
TGI [13]: > 100 µM
GI50 [14]: 50.4 µM
TGI [14]: > 100 µM
GI50 [15]: > 100 µM
TGI [15]: > 100 µM
GI50 [16]: > 100 µM
TGI [16]: > 100 µM
GI50 [17]: > 100 µM
TGI [17]: > 100 µM
GI50 [18]: 73.7 µM
TGI [18]: > 100 µM
GI50 [19]: > 100 µM
TGI [19]: > 100 µM
GI50 [20]: 61.2 µM
TGI [20]: > 100 µM
GI50 [21]: > 100 µM
TGI [21]: > 100 µM
GI50 [22]: > 100 µM
TGI [22]: > 100 µM
GI50 [23]: > 100 µM
TGI [23]: > 100 µM
GI50 [24]: 38.7 µM
TGI [24]: > 100 µM
GI50 [25]: 51.5 µM
TGI [25]: > 100 µM
GI50 [26]: > 100 µM
TGI [26]: > 100 µM
GI50 [27]: 46.9 µM
TGI [27]: > 100 µM
GI50 [28]: > 100 µM
TGI [28]: > 100 µM
GI50 [29]: > 100 µM
TGI [29]: > 100 µM
GI50 [30]: > 100 µM
TGI [30]: > 100 µM
GI50 [31]: > 100 µM
TGI [31]: > 100 µM
GI50 [32]: > 100 µM
TGI [32]: > 100 µM
GI50 [33]: > 100 µM
TGI [33]: > 100 µM
GI50 [34]: 66.5 µM
TGI [34]: > 100 µM
GI50 [35]: 24.9 µM
TGI [35]: 95.6 µM
GI50 [36]: 28.5 µM
TGI [36]: > 100 µM
GI50 [37]: > 100 µM
TGI [37]: > 100 µM
GI50 [38]: > 100 µM
TGI [38]: > 100 µM
GI50 [39]: 42.4 µM
TGI [39]: > 100 µM
GI50 [40]: > 100 µM
TGI [40]: > 100 µM
GI50 [41]: > 100 µM
TGI [41]: > 100 µM
GI50 [42]: 16.9 µM
TGI [42]: 64.6 µM
GI50 [43]: 62.6 µM
TGI [43]: > 100 µM
GI50 [44]: 31.5 µM
TGI [44]: > 100 µM
GI50 [45]: > 100 µM
TGI [45]: > 100 µM
GI50 [46]: > 100 µM
TGI [46]: > 100 µM
GI50 [47]: > 100 µM
TGI [47]: > 100 µM
GI50 [48]: > 100 µM
TGI [48]: > 100 µM
GI50 [49]: > 100 µM
TGI [49]: > 100 µM
GI50 [50]: > 100 µM
TGI [50]: > 100 µM
GI50 [51]: 91 µM
TGI [51]: > 100 µM
GI50 [52]: > 100 µM
TGI [52]: > 100 µM
GI50 [53]: > 100 µM
TGI [53]: > 100 µM
GI50 [54]: 49.4 µM
TGI [54]: > 100 µM
GI50 [55]: > 100 µM
TGI [55]: > 100 µM
GI50 [56]: 41.4 µM
TGI [56]: > 100 µM
GI50 [57]: 15.8 µM
TGI [57]: 74.9 µM
